Test results as given in patent publication US5104858A, “Sensitizing multidrug resistant cells to antitumor agents” (priority 1988, dated 1992).
Entries after “also recorded” stand apart in the source; their conditions may differ. Where two headings read alike, the source gives them in different places. Each block holds one molecule with its values, some of them ahead of it.

Assays:
MCF-7/DOX cells [1] = experiment: Inhibition of MCF-7/DOX cell growth, microtiter methylene blue staining assay, 48 h; type: cell-based, human
MCF-7/DOX cells [2] = experiment: Antagonism of multidrug resistance (sensitization to doxorubicin) in MCF-7/DOX cells, MDR Ratio; type: cell-based, human; conditions: for MDR Ratio (IC50 doxorubicin alone / IC50 doxorubicin in presence of modifier): 48 h
Calmodulin [3] = target: T1, Calmodulin (Bos taurus, UniProt P62157); experiment: biochemical
MCF-7/DOX cells [4] = experiment: Cellular accumulation of cis and trans-flupenthixol in MCF-7/DOX cells; type: cell-based, human; conditions: for cell associated drug concentration at 3 μM / cell associated drug concentration at 10 μM / cell associated drug concentration at 100 μM: 3 hour incubation; for cellular accumulation of thioxanthene isomers, in words: MDR cells
Experimental: Cells were washed three times in cold PBS by centrifugation at 100× g for 10 minutes, resuspended in 2 ml of 0.3N HCl in 50% ethanol, and sonicated for 10 pulses at 200 ws with a Tekmar cell sonicator (Tekmar, Cincinnati, Ohio). Following centrifugation at 1000× g for 30 minutes, the supernatant was removed and assayed for drug content with a Perkin-Elmer 512 spectrofluorometer (Norwalk, Conn.). Optimal excitation and emission wavelengths for both thioxanthene isomers were determined to be 320 nm and 400 nm, respectively.

Calmodulin [5] = target: T1, Calmodulin; conditions: Norman and Drummond; cited from earlier work
acute schizophrenia = conditions: humans; cited from earlier work
[6] = Norman and Drummond; cited from earlier work
[7] = test system: clinically resistant cancer; conditions: with doxorubicin or bleomycin, Phase I, cited from earlier work
P-glycoprotein = conditions: MDR Chinese hamster lung cells, Center; cited from earlier work
MCF-7/DOX cells [8] = conditions: Fine et al; cited from earlier work
L1210/DOX cells = conditions: Ganapathi and Grabowski; cited from earlier work
[9] = test system: KC/ADR10 human breast cells; conditions: Ahn et al; cited from earlier work
MCF-7/DOX cells [10] = experiment: Cellular accumulation of doxorubicin in MDR MCF-7/DOX cells; type: cell-based, human; conditions: 3 hours, 15 μM doxorubicin
[11] = Homo sapiens, MCF7-DOX, 48 h, MCF-7/DOX cells, 48 h, drug alone; read-out: IC50 for cell growth inhibition
[12] = Homo sapiens, MCF7-DOX, 48 h, read-out: IC50 for cell growth inhibition
[13] = Homo sapiens, MCF7-DOX, 48 h, read-out: concentration which alone produces 10% inhibition of cell growth
[14] = Homo sapiens, MCF7-DOX, 48 h; read-out: Cell Growth Inhibition IC50 (Table 5)
[15] = MCF-7/DOX cells, 48 h, drug alone; read-out: IC50 for cell growth inhibition
[16] = Homo sapiens, MCF7-DOX, 48 h; read-out: IC50 for cell growth inhibition
[17] = read-out: IC50 for cell growth inhibition
[18] = Homo sapiens, MCF7-DOX, 48 h, MCF-7/DOX cells, 48 h, structurally related compounds; read-out: Cell Growth Inhibition IC50 (Table 5)

IC50 (MCF-7/DOX cells [1]; [11]): 7 µM
IC50 (Calmodulin [3]): 40 µM
SMILES: CN(C)CCCCN1c2ccccc2Sc2ccc(Cl)cc21 [2-Chloro-10-[4-(dimethylamino)butyl] phenothiazine]
MDR Ratio (IC50 doxorubicin alone / IC50 doxorubicin in presence of modifier) (MCF-7/DOX cells [2]): 2.0

SMILES: OCCN1CCN(CC/C=C2\c3ccccc3Sc3ccc(C(F)(F)F)cc32)CC1 [trans-Flupenthixol]
IC50 (MCF-7/DOX cells [1]; [12]): 25 µM
IC10 (MCF-7/DOX cells [1]; [13]): 6 µM
IC50 (MCF-7/DOX cells [1]; [14]): 25 µM
cell associated drug concentration at 3 μM (MCF-7/DOX cells [4]): 420 ± 80 pmol/10^6 cells
cell associated drug concentration at 10 μM (MCF-7/DOX cells [4]): 1000 ± 250 pmol/10^6 cells
cell associated drug concentration at 100 μM (MCF-7/DOX cells [4]): 6000 ± 330 pmol/10^6 cells
cellular accumulation of thioxanthene isomers, in words (MCF-7/DOX cells [4]): equivalent, dose-dependent fashion
anti-CaM effect of thioxanthene stereoisomers (Calmodulin [5]): no difference between cis and trans-flupenthixol
extrapyramidal side effects / toxicity of flupenthixol isomers (acute schizophrenia): lacks these side effects; also recorded: far less toxic; also recorded: apparent lack of extrapyramidal side effects
octanol:buffer partition coefficient (log P) [6]: 4.25

IC50 (MCF-7/DOX cells [1]; [11]): 8 to 12 µM
IC50 (MCF-7/DOX cells [1]; [15]): 11 µM
IC50 (Calmodulin [3]): 38 µM
SMILES: NCCCN1c2ccccc2Sc2ccc(Cl)cc21 [Didesmethylchlorpromazine]
MDR Ratio (IC50 doxorubicin alone / IC50 doxorubicin in presence of modifier) (MCF-7/DOX cells [2]): 1.1

IC50 (MCF-7/DOX cells [1]; [11]): 15 µM
IC50 (Calmodulin [3]): 25 µM
SMILES: CN(C)CCCN1c2ccccc2Sc2c(Cl)cccc21 [4-Chlorpromazine]
MDR Ratio (IC50 doxorubicin alone / IC50 doxorubicin in presence of modifier) (MCF-7/DOX cells [2]): 1.4

IC50 (MCF-7/DOX cells [1]; [11]): 27 µM
IC50 (Calmodulin [3]): 60 µM
SMILES: CN(C)CCN1c2ccccc2Sc2ccc(Cl)cc21 [2-Chloro-10-[2-(dimethylamino)ethyl] phenothiazine]
MDR Ratio (IC50 doxorubicin alone / IC50 doxorubicin in presence of modifier) (MCF-7/DOX cells [2]): 1.5

IC50 (MCF-7/DOX cells [1]; [11]): 8 to 12 µM
IC50 (MCF-7/DOX cells [1]; [15]): 12 µM
IC50 (Calmodulin [3]): 28 µM
SMILES: CCN(CC)CCCN1c2ccccc2Sc2ccc(Cl)cc21 [Chlorproethazine]
MDR Ratio (IC50 doxorubicin alone / IC50 doxorubicin in presence of modifier) (MCF-7/DOX cells [2]): 2.2

SMILES: OCCN1CCN(CC/C=C2/c3ccccc3Sc3ccc(C(F)(F)F)cc32)CC1 [cis-Flupenthixol]
IC10 (MCF-7/DOX cells [1]; [13]): 3 µM
IC50 (MCF-7/DOX cells [1]; [14]): 24 µM
cell associated drug concentration at 3 μM (MCF-7/DOX cells [4]): 830 ± 80 pmol/10^6 cells
cell associated drug concentration at 10 μM (MCF-7/DOX cells [4]): 1420 ± 250 pmol/10^6 cells
cell associated drug concentration at 100 μM (MCF-7/DOX cells [4]): 7000 ± 330 pmol/10^6 cells
cellular accumulation of thioxanthene isomers, in words (MCF-7/DOX cells [4]): equivalent, dose-dependent fashion
anti-CaM effect of thioxanthene stereoisomers (Calmodulin [5]): no difference between cis and trans-flupenthixol
octanol:buffer partition coefficient (log P) [6]: 4.25

SMILES: CN(C)CCCN1c2ccccc2[S+]([O-])c2ccc(Cl)cc21 (stereo not shown) [Chlorpromazine Sulfoxide]
inhibition of cell growth, comparison in words (MCF-7/DOX cells [1]): lost most of its antiproliferative effect
IC50 (MCF-7/DOX cells [1]; [12]): 500 µM
anti-MDR activity, comparison in words (MCF-7/DOX cells [2]): retained its effect against MDR
IC50 (Calmodulin [3]): 2200 µM

SMILES: CN(C)CCCN1c2ccccc2Sc2ccccc21 [Promazine]
IC50 (MCF-7/DOX cells [1]; [11]): 26 µM
IC50 (MCF-7/DOX cells [1]; [15]): 27 µM
MDR Ratio (IC50 doxorubicin alone / IC50 doxorubicin in presence of modifier) (MCF-7/DOX cells [2]): 1.2
sensitization of MCF-7/DOX cells to doxorubicin (MCF-7/DOX cells [2]; modifier at 10% growth inhibitory concentration): 20%
IC50 (Calmodulin [3]): 110 µM

SMILES: O=c1[nH]c2ccccc2n1C1CCN(CCCC(c2ccc(F)cc2)c2ccc(F)cc2)CC1 [Pimozide]
octanol:buffer partition coefficient (log P) [6]: 4.88
IC50 (Calmodulin [3]): 7 µM

SMILES: CN1CCN(CCCN2c3ccccc3Sc3ccc(C(F)(F)F)cc32)CC1 [Trifluoperazine]
IC50 (MCF-7/DOX cells [1]; [16]): 19 µM
dose limiting side effects in combination trials [7]: Extrapyramidal side effects have proven to be dose limiting
dose limiting side effects in combination trials ([7]; listed as trifluperazine): extrapyramidal side effects
phosphorylation of P-glycoprotein, doxorubicin accumulation and cytotoxicity (P-glycoprotein): increased phosphorylation of this protein in MDR Chinese hamster lung cells and enhanced doxorubicin accumulation and cytotoxicity
reversal of phorbol ester effects on anthracycline resistance (MCF-7/DOX cells [8]): reversed

SMILES: CN(C)CCCN1c2ccccc2Sc2ccc(C(F)(F)F)cc21 [Trifluopromazine]
IC50 (MCF-7/DOX cells [1]; [16]): 16 µM
IC50 (MCF-7/DOX cells [1]; [17]): 14 µM

SMILES: CC1CNCCN1S(=O)(=O)c1cccc2cnccc12 (stereo not shown) [H-7, 1-(5-isoquinolinylsulfonyl)-2-methylpiperazine]
sensitization of L1210/DOX cells (L1210/DOX cells): failed to sensitize L1210/DOX cells
sensitization of KC/ADR10 human breast cells [9]: does sensitize KC/ADR10 human breast cells

IC50 (MCF-7/DOX cells [1]; [11]): 20 µM
IC50 (Calmodulin [3]): 42 µM
SMILES: CSc1ccc2c(c1)N(CCCN(C)C)c1ccccc1S2 [Thiomethylpromazine]
MDR Ratio (IC50 doxorubicin alone / IC50 doxorubicin in presence of modifier) (MCF-7/DOX cells [2]): 1.5

IC50 (MCF-7/DOX cells [1]; [11]): 21 µM
IC50 (Calmodulin [3]): 74 µM
SMILES: CN(C)CCCN1c2ccccc2Sc2cccc(Cl)c21 [1-Chlorpromazine]
MDR Ratio (IC50 doxorubicin alone / IC50 doxorubicin in presence of modifier) (MCF-7/DOX cells [2]): 1.3

IC50 (MCF-7/DOX cells [1]; [11]): 10 µM
IC50 (Calmodulin [3]): 24 µM
SMILES: CN(C)CCCN1c2ccccc2Sc2cc(Cl)ccc21 [3-Chlorpromazine]
MDR Ratio (IC50 doxorubicin alone / IC50 doxorubicin in presence of modifier) (MCF-7/DOX cells [2]): 1.3

IC50 (MCF-7/DOX cells [1]; [11]): 8 to 12 µM
IC50 (MCF-7/DOX cells [1]; MCF-7/DOX cells, 48 h, drug alone; listed as desmethylchlorpromazine; read-out: IC50 for cell growth inhibition): 8 µM
IC50 (MCF-7/DOX cells [1]; [15]): 8 µM
IC50 (Calmodulin [3]): 45 µM
SMILES: CNCCCN1c2ccccc2Sc2ccc(Cl)cc21 [Desmethylchlorpromazine]
MDR Ratio (IC50 doxorubicin alone / IC50 doxorubicin in presence of modifier) (MCF-7/DOX cells [2]): 1.2

IC50 (MCF-7/DOX cells [1]; [11]): 63 µM
IC50 (Calmodulin [3]): 82 µM
SMILES: CN(C)CCCN1c2cc(Cl)ccc2Sc2cc(O)c(O)cc21 [7,8-Dihydroxychlorpromazine]
MDR Ratio (IC50 doxorubicin alone / IC50 doxorubicin in presence of modifier) (MCF-7/DOX cells [2]): 0.8

SMILES: CN(C)CCCN1c2ccccc2Sc2ccc(Cl)cc21 [Chlorpromazine]
IC50 (MCF-7/DOX cells [1]; [16]): 8 µM
IC50 (MCF-7/DOX cells [1]; [17]): 8 to 12 µM
sensitization of MCF-7/DOX cells to doxorubicin (MCF-7/DOX cells [2]): 60%
octanol:buffer partition coefficient (log P) [6]: 4.04

SMILES: CN(C)CCCN1c2ccccc2CCc2ccccc21 [Imipramine]
IC50 (MCF-7/DOX cells [1]; [18]): 19 µM
IC50 (Calmodulin [3]): 125 µM

SMILES: CC(CN1c2ccccc2Sc2ccccc21)N(C)C (stereo not shown) [Promethazine]
inhibition of cell growth, comparison in words (MCF-7/DOX cells [1]): less potent inhibitor of cell growth than promazine
IC50 (MCF-7/DOX cells [1]; [16]): 29 µM

IC50 (MCF-7/DOX cells [1]; [18]): 3 µM
IC50 (Calmodulin [3]): 3 µM
SMILES: OC1(c2ccc(Cl)c(C(F)(F)F)c2)CCN(CCCC(c2ccc(F)cc2)c2ccc(F)cc2)CC1 [Penfluridol]
MDR Ratio (IC50 doxorubicin alone / IC50 doxorubicin in presence of modifier) (MCF-7/DOX cells [2]): 2.0

SMILES: COc1cccc2c1C(=O)c1c(O)c3c(c(O)c1C2=O)C[C@@](O)(C(=O)CO)C[C@@H]3O[C@H]1C[C@H](N)[C@H](O)[C@H](C)O1 [Doxorubicin]
IC50 (MCF-7/DOX cells [1]; [12]): 12 µM
resistance to doxorubicin of MCF-7/DOX cells relative to parental cell line (MCF-7/DOX cells [1]; human, mcf-7/dox cells): approximately 200 fold
doxorubicin accumulation, fold less in MCF-7/DOX than in sensitive cell line (MCF-7/DOX cells [10]): approximately 10 fold

IC50 (MCF-7/DOX cells [1]; [11]): 400 µM
IC50 (Calmodulin [3]): 183 µM
SMILES: CN(C)CCCN1c2cc(O)ccc2Sc2cc(O)c(Cl)cc21 [3,8-Dihydroxychlorpromazine]
MDR Ratio (IC50 doxorubicin alone / IC50 doxorubicin in presence of modifier) (MCF-7/DOX cells [2]): 0.9

IC50 (MCF-7/DOX cells [1]; [11]): 50 µM
IC50 (Calmodulin [3]): 68 µM
SMILES: CN(C)CCCN1c2ccc(O)cc2Sc2ccc(Cl)cc21 [7-Hydroxychlorpromazine]
relative potency in inhibiting cell growth (fold less potent) (MCF-7/DOX cells [1]; versus chlorpromazine): 6 fold
MDR Ratio (IC50 doxorubicin alone / IC50 doxorubicin in presence of modifier) (MCF-7/DOX cells [2]): 1.0

SMILES: OCCN1CCN(CCCN2c3ccccc3Sc3ccc(Cl)cc32)CC1 [Perphenazine]
IC50 (MCF-7/DOX cells [1]; [16]): 32 µM

IC50 (MCF-7/DOX cells [1]; [18]): 3 µM
IC50 (Calmodulin [3]): 42 µM
SMILES: CCN(CC)CCCC(C)Nc1c2ccc(Cl)cc2nc2ccc(OC)cc12 (stereo not shown) [Quinacrine]
MDR Ratio (IC50 doxorubicin alone / IC50 doxorubicin in presence of modifier) (MCF-7/DOX cells [2]): 1.3
